These results are taken from paper PMC12856912, “Structure-Guided Semisynthesis of Blasticidin S–Amicetin Chimeras as Selective Ribosome Inhibitors” (Journal of the American Chemical Society, 2026).

Converted amounts (≈) assume the structure as drawn. Bounds are passed on as bounds.

One data set concerns MRSA ATCC 43300. Kind of data set: Antibacterial MIC assay, serial dilution. The format is cell-based, Staphylococcus aureus. The note with it: for Selectivity index (CC50/MIC) MRSA 43300: CC50 Vero cells / MIC; for MIC: Staphylococcus aureus, read-out: MIC MRSA ATCC 43300. The protocol: (§1) Media and solutions were autoclaved or sterile filtered prior to use and mani pulations were carri ed out in a laminar flow hood. Antibacterial t esting was performed in polypropylene 96-well flat bottom plates. The minimal inhibitory concentration of blasticidin S (1) hydrochloride, methyl ester (3) trihydrochloride, P10 (2) tri-T FA , phenet hyl amide (4) tri -T FA , an d blastimidines M 19– 22, A, 29–32, P 37–40, and C 43–46 (salt forms as described in the te xt) were assessed against Staphylococcus aureus ΔNorA, S. aureus ATCC 6538P, methicillin-resistant S. aureus (MRSA) ATCC 43300, Enterococcus faecalis ATCC 29212, vancomycin- resistant Enterococcus, Klebsiella pneumoniae ATCC 29665, Pseudomonas aeruginosa,and Acinetobacter baumannii ATCC 17978 using serial dilutions. Doxycycline (Gold Bio) as a positive control and the vehicle as a negative control. Stock solutions of each compound were prepared at 2.56 mg/mL in 50% DMSO/water and serially diluted in 50% DMSO/water to create master plates. From the master plates, 10 μ L o f each dilution was applied to test plates using a Bravo automated liquid transfer system (Agilent).
(§2) Bacteria previously grown overnight (37 °C, 120–200 RPM), in LB broth were diluted to an OD600 of 0.05 in cation-adjusted Mueller-Hinton broth (CAMHB), grown to an OD600 of ~0.5, and diluted to an OD600 of 0.004 in CAMHB . These diluted cultures were applied to the test plates (190 μL per test well) resulting in final concentrations of the test compounds of 128–1 μg/ m L.
(§3) Growth controls (wells with inoculated media but no vehicle or test compounds) were included to assess any potential toxicity from the vehicle. Th e plates were in cubated at 37 °C for 16–18 h, except fo r VRE and E. faecalis, which w ere in cub ated at 37 °C fo r 24 h. Inh ibition was determined by measuring the optical density at 600 nm (OD60 0) with a Cytation 3 pl ate read er (BioTek). The optical density measurem ents were no rmalized to the positive and negative controls and the vehicle and growth controls were compared and found to b e indistinguishable, indicating no toxicity from […]
(§4) the vehicle used. The MIC was the lowest concentration that inhibited >90% of growth. Two biological replicates were performed in duplicate. MIC values are reported as a range from […]

Another data set deals with S. aureus ATCC 6538P. Briefly: Antibacterial MIC assay, serial dilution. The format is cell-based, Staphylococcus aureus. The note with it: for Selectivity index (CC50/MIC) S. aureus 6538P: CC50 Vero cells / MIC; for MIC: Staphylococcus aureus, ATCC 6538P / ATCC 6539P, read-out: MIC S. aureus ATCC 6539P. The procedure: as §1, §2, §3, §4
In another data set the test system is S. aureus ΔNorA. Kind of data set: Antibacterial MIC assay, serial dilution. The format is cell-based, Staphylococcus aureus. The note with it: for Selectivity index (CC50/MIC) S. aureus ΔNorA: CC50 Vero cells / MIC; for MIC: Staphylococcus aureus, read-out: MIC S. aureus ∆NorA. The procedure:
as §1, §2, §3, §4

The subject of data set [1] is Methicillin resistant Staphylococcus epidermidis (MRSE) ATCC 35984 NRS101. Briefly: Antibacterial MIC assay, serial dilution. The note with it: for Selectivity index (CC50/MIC) MRSE 35984: CC50 Vero cells / MIC; for MIC: Staphylococcus epidermidis, read-out: MIC Methicillin resistant Staphylococcus epidermidis (MRSE) ATCC 35984 NRS101. It counts as cell-based.
For data set [2], the system named is Methicillin resistant S. aureus (MRSA) USA300. Briefly: Antibacterial MIC assay, serial dilution. It counts as cell-based, Staphylococcus aureus. The note with it: for Selectivity index (CC50/MIC) MRSA USA300: CC50 Vero cells / MIC; for MIC: Staphylococcus aureus, read-out: MIC Methicillin resistant S. aureus (MRSA) USA300.
Data set [3] has as its system Vancomycin resistant E. faecalis NR-31972 (VRE). Kind of data set: Antibacterial MIC assay, serial dilution. It counts as cell-based, Enterococcus faecalis. The note with it: for Selectivity index (CC50/MIC) VRE NR-31972: CC50 Vero cells / MIC; for MIC: Enterococcus faecalis, VRE, 24 h, read-out: MIC Vancomycin resistant E. faecalis NR-31972 (VRE). The procedure:
as §1, §2, §3, §4

Data set [4] deals with Acinetobacter baumannii ATCC 17978. Kind of data set: Antibacterial MIC assay, serial dilution. The format is cell-based. The note with it: ATCC17978, range from biological replicates. The procedure:
as §1, §2, §3, §4

The subject of data set [5] is Enterococcus faecalis ATCC 29212. Kind of data set: Antibacterial MIC assay, serial dilution. The format is cell-based. The note with it: for Selectivity index (CC50/MIC) E. faecalis 29212: CC50 Vero cells / MIC; for MIC: Enterococcus faecalis, ATCC 29112 / ATCC 29212, 24 h, read-out: MIC E. faecalis ATCC 29112. The protocol:
as §1, §2, §3, §4

For data set [6], the system named is Klebsiella pneumoniae ATCC 29665. Briefly: Antibacterial MIC assay, serial dilution. It counts as cell-based. The note with it: for Selectivity index (CC50/MIC) K. pneumoniae: CC50 Vero cells / MIC; for MIC: Klebsiella pneumoniae, ATCC29665, range from biological replicates, read-out: MIC K. pneumoniae ATCC-29665. The procedure:
as §1, §2, §3, §4

The next data set relates to Pseudomonas aeruginosa. Kind of data set: Antibacterial MIC assay, serial dilution. The format is cell-based. The note with it: for Selectivity index (CC50/MIC) P. aeruginosa: CC50 Vero cells / MIC; for MIC: Pseudomonas aeruginosa, range from biological replicates, read-out: MIC P. aeruginosa. The protocol: as §1, §2, §3, §4
Data set [7] has as its system Vancomycin resistant Enterococcus faecium NR-31909 (VRE). Kind of data set: Antibacterial MIC assay, serial dilution. It counts as cell-based. The note with it: for Selectivity index (CC50/MIC) VRE NR-31909: CC50 Vero cells / MIC; for MIC: Enterococcus faecium, VRE, 24 h, read-out: MIC Vancomycin resistant Enterococcus faecium NR-31909 (VRE). The protocol:
as §1, §2, §3, §4

Data set [8] concerns Escherichia coli BAA-2452. Briefly: Antibacterial MIC assay, serial dilution. The format is cell-based. The note with it: BAA2452, read-out: MIC Escherichia coli BAA-2452.
A short description of data set [9]: Cytotoxicity assay (MTS/PMS). It counts as cell-based. The note with it: monkey, Vero cells (monkey kidney epithelial cells); 24 h treatment, MTS/PMS, average of three biological replicates; read-out: CC50 against Vero cells. The protocol:
The potential cytotoxic eff ect of the test compounds was investigated using Vero cells (monkey kidney epitheli al cells) following est ablished protocols.3 Briefly, Vero cells were plated into 96-well plates supplemented with Dulbecco's Modified Eagle Medium (DMEM) containing 10% fetal bovine serum (FBS). The cells were placed in a humidified 37 °C environment for incubation with 5% CO₂ for 24 h to allow proper adherence and growth. Following the incubation period, the culture medium was replaced with fresh DMEM containing serial dilutions of the test compounds, while the v ehicle alon e w as used as a negative control. The treated cells were incubated for an additional 24 h. To assess cell viability, the MTS/PMS reagent was added to each well and incubat ed for 4 h. A microplate reader (S ynergy H1, BioTek, USA) was used to m easure absorbance at 490 nm. Al l experiments wer e cond ucted usingthree biologi cal replicates .
Ta b l e S2. CC50 valuesa (µg/mL) against Vero cells […]
aValues at which the cell viability (normalized to vehicle control) was 50%. […]

In the case of `CN(CC[C@H](N)CC(=O)N[C@H]1C=C[C@H](n2ccc(NC(=O)c3ccc(NC(=O)[C@@](C)(N)CO)cc3)nc2=O)O[C@@H]1C(=O)O)C(=N)N` [Blastimidine C5], the “Selectivity index (CC50/MIC) MRSA 43300” value in the data set on MRSA ATCC 43300 was <1.4. Moreover, the MIC (with MRSA ATCC 43300; with S. aureus ATCC 6538P; in the data set on S. aureus ΔNorA; in data set [1]; in [2]; in [3]) was > 128 µg/mL in each case. Besides, the MIC (in data set [4]; in [5]; in data set [6]; in the data set on Pseudomonas aeruginosa; in data set [7]; in data set [8]) was > 128 µg/mL each time. Further, the “Selectivity index (CC50/MIC) S. aureus 6538P” value in the data set on S. aureus ATCC 6538P is <1.4. Besides, the “Selectivity index (CC50/MIC) S. aureus ΔNorA” value with S. aureus ΔNorA is on record as <1.4. Moreover, in data set [1], the “Selectivity index (CC50/MIC) MRSE 35984” value was <1.4. In data set [2], the “Selectivity index (CC50/MIC) MRSA USA300” value is given as <1.4. Also, the “Selectivity index (CC50/MIC) VRE NR-31972” value in data set [3] is on record as <1.4. For the same compound, in data set [5], the “Selectivity index (CC50/MIC) E. faecalis 29212” value is on record as <1.4. In addition, the “Selectivity index (CC50/MIC) K. pneumoniae” value in data set [6] is on record as <1.4. The “Selectivity index (CC50/MIC) P. aeruginosa” value in the data set on Pseudomonas aeruginosa is on record as <1.4. The “Selectivity index (CC50/MIC) VRE NR-31909” value in [7] is recorded as <1.4. Also, in [9], the CC50 (usually the concentration that lowers cell viability or growth by half) at 24 h worked out at 177 µg/mL (≈ 275 µM).
`CNc1ccc(C(=O)Nc2ccn([C@H]3C=C[C@H](NC(=O)C[C@@H](N)CCN(C)C(=N)N)[C@@H](C(=O)O)O3)c(=O)n2)cc1` [Blastimidine C3]: in the data set on MRSA ATCC 43300, the “Selectivity index (CC50/MIC) MRSA 43300” value is <1.1. The MIC – broadly, the least concentration at which growth counts as inhibited – was > 128 µg/mL in the data set with MRSA ATCC 43300; > 128 µg/mL with S. aureus ATCC 6538P; > 128 µg/mL in the data set with S. aureus ΔNorA; > 128 µg/mL in data set [1]; 128 µg/mL (≈ 230 µM) in data set [2]; 128 µg/mL (≈ 230 µM) in [3]. The minimum inhibitory concentration (MIC) in data set [4] was > 128 µg/mL; in data set [5], 64 µg/mL (≈ 115 µM); in [6] it was 64 to 128 µg/mL (≈ 115 to 230 µM); in the data set with Pseudomonas aeruginosa, > 128 µg/mL; in [7], 64 µg/mL (≈ 115 µM); in data set [8], > 128 µg/mL. In the data set with S. aureus ATCC 6538P, the “Selectivity index (CC50/MIC) S. aureus 6538P” value is recorded as <1.1. The “Selectivity index (CC50/MIC) S. aureus ΔNorA” value with S. aureus ΔNorA is reported as <1.1. Moreover, in data set [1], the “Selectivity index (CC50/MIC) MRSE 35984” value is on record as <1.1. Further, the “Selectivity index (CC50/MIC) MRSA USA300” value in data set [2] amounted to 1.1. For the same compound, the “Selectivity index (CC50/MIC) VRE NR-31972” value in data set [3] came out at 1.1. For the same compound, in data set [5], the “Selectivity index (CC50/MIC) E. faecalis 29212” value is 2.2. Moreover, in data set [6], the “Selectivity index (CC50/MIC) K. pneumoniae” value turned out to be 1.7. For the same compound, the “Selectivity index (CC50/MIC) P. aeruginosa” value with Pseudomonas aeruginosa is reported as <1.1. In [7], the “Selectivity index (CC50/MIC) VRE NR-31909” value is reported as 2.2. Besides, the CC50 at 24 h in [9] came out at 142 µg/mL (≈ 256 µM).
